From article PMC7426938, “Induction of mitochondria-mediated apoptosis and suppression of tumor growth in zebrafish xenograft model by cyclic dipeptides identified from Exiguobacterium acetylicum” (Scientific Reports, 2020) come the findings set out here.

Assay [1] concerns Colorectal cancer HT-29 cells. The assay is described as follows: MTT cell viability assay, HT-29. Format: cell-based. Conditions: Homo sapiens; for viability at 125 µM: 24 h treatment, read-out: relative percentage viability of HT-29 cells; for IC50: 24 h, MTT, read-out: HT-29 cells inhibitory (IC50) dose. The protocol: Human colorectal cancer (HT-29) and mouse embryonic fibroblast (3T3) cells were obtained from the American Type Culture Collection Centre (ATCC, VA, USA). Both cells were grown in Dulbecco Modified Eagle's Medium (DMEM, HiMedia, India) supplemented with 10% heat-inactivated fetal bovine serum (FBS), penicillin (50 units/mL), and streptomycin (50 µg/mL) and were cultured at 37 °C, 5% CO2 in a humidified atmosphere.
Cytotoxicity of the identified those DKPs were determined by cell viability study with the MTT (3-(4, 5-dimethylthiazol-2yl)-2, 5-diphenyltetrazolium bromide) reduction assay[49]. Briefly, 1.5 × 10^4 cells/well (HT-29) and 1.7 × 10^4 cells/well (3T3) cells were seeded into 96-well plates. They were incubated for 24 h at 37 °C with 5% CO2 and 95% relative humidity atmosphere. After 24 h, identified DKPs were added different concentrations (12.5 to 200 µM) into culture media in triplicates and re-incubated under the same culture conditions mentioned above. The final concentration of DMSO solution was 0.25% in the cells served as a negative control. Then culture media was removed from the plates, and 100 μL of freshly prepared MTT solution in serum-free medium (5 mg/mL) was added to each well and further incubated for 4 h. After that, 150 μL of DMSO solution was added under dark conditions and kept for 30 min at room temperature. The absorbance of the formazan product was measured at 595 nm in the microplate reader (Imark, Biorad). The percentage viability of the cells was measured by using the formula: Cell viability (%) = [(test/control) × 100)].
Results were expressed as mean ± standard deviation (SD). Data were analyzed one-way analysis of variance (ANOVA), followed by Student’s two-tailed t-test for comparison between two groups and Dunnett’s t-test was used when the data involved three or more groups. A value of p < 0.05 was considered statistically significant. All statistical analyses and inhibitory concentration (IC50) were determined by graph-pad prism statistical software (San Diego, CA, USA).
A general note: Formazan colour is commonly taken as a measure of viable cells.

For assay [2], the system named is Cytc protein in HT-29 cells. The assay is described as follows: Western blot, Cytc protein. Format: cell-based, human. Conditions: 100 μM, 24 h, whole-cell lysate, vs untreated cells. The procedure:
(§1) Total protein was isolated from HT-29 cells by using lysis buffer. Cells were collected by centrifugation at 1,500 rpm for 5 min. After that, cell pellets were re-suspended with RIPA lysis buffer consisting of 1 mM protease inhibitor cocktail (PIC; Sigma-Aldrich; P8340) and lysed at […] for 1 h. After incubation, the protein was obtained by centrifugation at 13,000 × g for 15 min and kept for − 80 °C until analysis. Also, mitochondrial and cytosolic fractions were obtained by using fraction lysis buffer as described previously[50] with minor modifications. Lysed cells were kept in ice for 10 min and then cells were triturated by a 27 gauge syringe (25 strokes) to become homogeneous followed by centrifugation at 13,000 × g for 30 min. The collected supernatant was the cytosolic fraction. After the pellet was washed with lysis buffer and it was dissolved in lysis buffer for protein quantification. Protein concentration was measured by Pierce BCA protein assay kit (Thermo Scientific Laboratories, Rockford, USA) according to the manufacturer instructions. Equal amounts of proteins from all samples were separated by 10% SDS–polyacrylamide gel electrophoresis (SDS-PAGE) and electrotransferred. Polyvinylidene difluoride (PVDF) membrane was blocked with 5% skimmed milk for 1 h, followed by incubation with primary (Cytochrome-c: sc-13560; Bid: sc-11423; COX-IV: #4850; 1:2000; GAPDH: #3683; 1:10,000) and HRP-conjugated secondary (Got Anti-mouse IgG: 20102; Got anti-rabbit IgG: 20202: 1:10,000) antibodies against specific proteins. The protein signals were detected by Enhanced Chemiluminescence (ECL) detection kit (Amersham Piscataway, NJ, USA). The protein expression levels were analyzed by measuring the intensity of the band from scanned films using Image-J software. GAPDH and COX-IV served as a housekeeping protein to normalize the expression levels.

Assay [3] has as its system Bid protein in HT-29 cells. Briefly: Western blot, Bid protein. It counts as cell-based, human. The following applies: for Bid protein expression up-regulation: 200 μM, 24 h, vs untreated group. The protocol:
as §1

In the next assay the test system is HT-29 cells. Briefly: Annexin V-FITC/PI double staining, flow cytometry. It counts as cell-based, human. Conditions: 24 h; for LA/NC Q2 late apoptotic or/and necrotic cells, fold change / Q1 + Q2 total dead cells, fold change / Q1 dead cells, fold change / Q2 + Q3 total apoptotic cells, fold change / EAC Q3 early apoptotic cells, fold change: vs CTL; for viability at 50 µM / viability at 100 µM / viability at 200 µM: Homo sapiens, HT-29, quadrant plot, read-out: Percentage of viable (Q4) cells. The protocol:
The dead, necrotic, and apoptotic cells were analyzed by annexin V/PI double staining method, which was used to detect the externalization of phosphatidylserine (PS). Briefly, cells at the density of 4.5 × 10^4 cells/well were seeded into 6-well plates and treated with or without DKPs for 24 h. Subsequently, both floating and adherent cells were harvested by centrifugation at 1,500 rpm for 5 min, then re-suspended in 300 μL of 1X binding buffer, followed by 3 μL of annexin V-FITC and propidium iodide (PI) (Apoptosis Detection kit, Lead Gen, Taiwan) was added into each sample and incubated for 20 min at room temperature in the dark following the protocol recommended by the manufactures. Cells were analyzed by flow cytometry (FACS Calibur, Becton Dickinson, CA, USA) using WinMDI 2.9 software (La Jolla, CA, USA). The individual populations can be defined using quadrant gates, the number of cells in each quadrant indicated the following: Quadrant-1 (Q1): annexin V^-/PI^+ cells were considered as dead cells; Quadrant-2 (Q2): Annexin V^+/PI^+ cells were considered as late apoptotic and necrotic cells; Quadrant-3 (Q3): Annexin V^+/PI^− cells were considered as early apoptotic cells; Quadrant-4 (Q4): Annexin V^-/PI^- cells were considered as healthy. Data were analyzed using FlowJo V12.1 software (Tree stat, Stanford, CA, USA).
(In general: A flow cytometer gives signals particle by particle.)

As usually defined, the IC50 is the concentration that inhibits the measured activity by half. Take `CC(C)C[C@@H]1NC(=O)[C@@H]2CCCN2C1=O` [DKP-1, cyclo (L-Pro-L-Leu)]: in assay [1], the viability at 125 µM is 36.3 ± 5.08% and the IC50 was 100 µM. The “Cytc protein expression up-regulation” value in assay [2] is listed as 1.21 fold. In addition, in assay [3], the “Bid protein expression up-regulation” value is given as 1.32 fold. Moreover, in the assay on HT-29 cells (50 μM), the “LA/NC Q2 late apoptotic or/and necrotic cells, fold change” value came to 2.3 fold; the “Q1 + Q2 total dead cells, fold change” value is reported as 1.7 fold; the “Q1 dead cells, fold change” value is listed as 1.5 fold; the “Q2 + Q3 total apoptotic cells, fold change” value came out at 2.3 fold. Also, the viability at 50 µM in the assay with HT-29 cells (50 μM) amounted to 83.3%. In addition, in the assay on HT-29 cells (100 μM), the “LA/NC Q2 late apoptotic or/and necrotic cells, fold change” value was 2.6 fold; the “Q1 + Q2 total dead cells, fold change” value worked out at 3.0 fold; the “Q1 dead cells, fold change” value is given as 3.1 fold; the “Q2 + Q3 total apoptotic cells, fold change” value is reported as 3.6 fold. Moreover, the viability at 100 µM in the assay on HT-29 cells (100 μM) was 69.7%. In addition, in the assay on HT-29 cells (200 μM), the “LA/NC Q2 late apoptotic or/and necrotic cells, fold change” value is recorded as 9.9 fold; the “Q1 + Q2 total dead cells, fold change” value was 3.3 fold; the “Q1 dead cells, fold change” value is given as 1.1 fold; the “Q2 + Q3 total apoptotic cells, fold change” value stood at 11.4 fold. In the assay with HT-29 cells (200 μM), the viability at 200 µM was determined as 56.3%.
`CC(C)[C@@H]1NC(=O)[C@@H]2CCCN2C1=O` [DKP-2, cyclo (L-Pro-L-Val)]: in assay [1], the viability at 125 µM is 42.3 ± 2.25% and the IC50 is 118 µM. Also, in assay [3], the “Bid protein expression up-regulation” value is listed as 1.21 fold. In the assay with HT-29 cells (50 μM), the “EAC Q3 early apoptotic cells, fold change” value is 3.0 fold; the “LA/NC Q2 late apoptotic or/and necrotic cells, fold change” value is on record as 2.5 fold; the “Q1 + Q2 total dead cells, fold change” value was 1.7 fold; the “Q1 dead cells, fold change” value came to 1.5 fold. In the assay with HT-29 cells (50 μM), the “Q2 + Q3 total apoptotic cells, fold change” value amounted to 2.7 fold and the viability at 50 µM worked out at 79.3%. In the assay with HT-29 cells (100 μM), the “EAC Q3 early apoptotic cells, fold change” value turned out to be 4.5 fold; the “LA/NC Q2 late apoptotic or/and necrotic cells, fold change” value turned out to be 3.5 fold; the “Q1 + Q2 total dead cells, fold change” value was 3.1 fold; the “Q1 dead cells, fold change” value is on record as 3.0 fold. In the assay with HT-29 cells (100 μM), the “Q2 + Q3 total apoptotic cells, fold change” value was found to be 3.9 fold and the viability at 100 µM amounted to 64.2%. In addition, in the assay with HT-29 cells (200 μM), the “EAC Q3 early apoptotic cells, fold change” value came to 10.6 fold; the “LA/NC Q2 late apoptotic or/and necrotic cells, fold change” value was found to be 11.2 fold; the “Q1 + Q2 total dead cells, fold change” value amounted to 3.5 fold; the “Q1 dead cells, fold change” value is 1.2 fold. For the same compound, in the assay with HT-29 cells (200 μM), the “Q2 + Q3 total apoptotic cells, fold change” value is 11.0 fold and the viability at 200 µM was found to be 52.5%.
On to `O=C1N[C@@H](Cc2ccccc2)C(=O)N2CCC[C@@H]12` [DKP-3, cyclo (L-Pro-L-Phe)], for which, in assay [1], the viability at 125 µM came to 34.7 ± 4.03% and the 50% inhibitory concentration (IC50) was 85.2 µM. The “Cytc protein expression up-regulation” value in assay [2] is listed as 1.45 fold. Also, the “Bid protein expression up-regulation” value in assay [3] was 1.76 fold. In the assay on HT-29 cells (50 μM), the “EAC Q3 early apoptotic cells, fold change” value worked out at 16.5 fold; the “LA/NC Q2 late apoptotic or/and necrotic cells, fold change” value turned out to be 10.5 fold; the “Q1 + Q2 total dead cells, fold change” value is 3.3 fold; the “Q1 dead cells, fold change” value was determined as 1.7 fold. In addition, in the assay on HT-29 cells (50 μM), the “Q2 + Q3 total apoptotic cells, fold change” value is listed as 12.7 fold and the viability at 50 µM is 55.8%. Besides, in the assay with HT-29 cells (100 μM), the “EAC Q3 early apoptotic cells, fold change” value was determined as 17.4 fold; the “LA/NC Q2 late apoptotic or/and necrotic cells, fold change” value came to 14.9 fold; the “Q1 + Q2 total dead cells, fold change” value was 3.8 fold; the “Q1 dead cells, fold change” value worked out at 1.4 fold. In the assay on HT-29 cells (100 μM), the “Q2 + Q3 total apoptotic cells, fold change” value was 15.9 fold and the viability at 100 µM came to 50%. In addition, in the assay with HT-29 cells (200 μM), the “EAC Q3 early apoptotic cells, fold change” value worked out at 22.3 fold; the “LA/NC Q2 late apoptotic or/and necrotic cells, fold change” value is on record as 15.6 fold; the “Q1 + Q2 total dead cells, fold change” value worked out at 3.8 fold; the “Q1 dead cells, fold change” value is 1.3 fold. Moreover, in the assay on HT-29 cells (200 μM), the “Q2 + Q3 total apoptotic cells, fold change” value was 18.1 fold and the viability at 200 µM stood at 45.4%.
On to `O=C1N[C@@H](Cc2ccc(O)cc2)C(=O)N2CCC[C@@H]12` [DKP-4, cyclo (L-Pro-L-Tyr)], for which, in assay [1], the viability at 125 µM came out at 42.1 ± 2.94% and the IC50 came out at 98 µM. Moreover, the “Cytc protein expression up-regulation” value in assay [2] came to 1.85 fold. The “Bid protein expression level” value in assay [3] (100 μM, vs control and 200 μM) is recorded as “increased the expression level of Bid”. In the assay on HT-29 cells (50 μM), the “EAC Q3 early apoptotic cells, fold change” value was found to be 20.5 fold; the “LA/NC Q2 late apoptotic or/and necrotic cells, fold change” value was 8.4 fold; the “Q1 + Q2 total dead cells, fold change” value amounted to 3.0 fold; the “Q1 dead cells, fold change” value came out at 1.5 fold. Further, in the assay on HT-29 cells (50 μM), the “Q2 + Q3 total apoptotic cells, fold change” value amounted to 12.6 fold and the viability at 50 µM came out at 57.6%. Also, in the assay with HT-29 cells (100 μM), the “EAC Q3 early apoptotic cells, fold change” value was 18.4 fold; the “LA/NC Q2 late apoptotic or/and necrotic cells, fold change” value is recorded as 14.6 fold; the “Q1 + Q2 total dead cells, fold change” value is 3.9 fold; the “Q1 dead cells, fold change” value is 1.0 fold. In the assay on HT-29 cells (100 μM), the “Q2 + Q3 total apoptotic cells, fold change” value was 15.9 fold and the viability at 100 µM amounted to 52%. Also, in the assay on HT-29 cells (200 μM), the “EAC Q3 early apoptotic cells, fold change” value was 10.8 fold; the “LA/NC Q2 late apoptotic or/and necrotic cells, fold change” value was found to be 18.0 fold; the “Q1 + Q2 total dead cells, fold change” value was 5.5 fold; the “Q1 dead cells, fold change” value is reported as 2.1 fold. In the assay on HT-29 cells (200 μM), the “Q2 + Q3 total apoptotic cells, fold change” value is given as 15.5 fold and the viability at 200 µM worked out at 46.5%.
